Columns and labels:
Experiment in all cases: Bliss excess, mean over the matrix (fraction); higher = more synergy
[1] = test system: UACC-812 (Breast Carcinoma)
Summary of the method: (§1)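 Bliss excess equals the observed combination effect minus the expected value EA + EB − EA·EB, where EA and EB are the effects of each agent alone. Combination Emax is the second-highest inhibition within the matrix. Inhibition was scaled from CellTiter-Glo 2.0 luminescence, with 0 set by vehicle wells and 1 by blank wells, after 72 hours of two-drug dosing of cells plated in 1536-well plates.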

[2] = test system: 22RV1 (Prostate Carcinoma)
Summary of the method: as §1

[3] = test system: A2780 (Ovarian Carcinoma)
Summary of the method: as §1

[4] = test system: SW620 (Colorectal Carcinoma)
Summary of the method: as §1

[5] = test system: LU-165 (Small Cell Lung Carcinoma)
Summary of the method: as §1

[6] = test system: CGTH-W-1 (Thyroid Gland Carcinoma)
Summary of the method: as §1

[7] = test system: MDA-MB-436 (Breast Carcinoma)
Summary of the method: as §1

[8] = test system: NCI-H2087 (Lung Adenocarcinoma)
Summary of the method: as §1

[9] = test system: 769-P (Kidney Carcinoma)
Summary of the method: as §1

[10] = test system: A101D (Melanoma)
Summary of the method: as §1

| Structure (SMILES) | Bliss excess [1] | Bliss excess [2] | Bliss excess [3] | Bliss excess [4] | Bliss excess [5] | Bliss excess [6] | Bliss excess [7] | Bliss excess [8] | Bliss excess [9] | Bliss excess [10] |
| --- | --- | --- | --- | --- | --- | --- | --- | --- | --- | --- |
| C[C@@H](Nc1cc(F)cc(F)c1)c1cc(C(=O)N(C)C)cc2c(=O)cc(N3CCOCC3)oc12 [AZD8186] + CC(=O)c1c(C)c2cnc(Nc3ccc(N4CCNCC4)cn3)nc2n(C2CCCC2)c1=O [Palbociclib] (first compound max 10 µM, 7x7, partner max 10 µM) | 0.0506 | -0.0421 | 0.0054 | 0.0238 | -0.0313 | 0.0397 | -0.0039 | -0.0232 | 0.0354 |  |
| C[C@@H]1COCCN1c1cc(C2([S@](C)(=N)=O)CC2)nc(-c2ccnc3[nH]ccc23)n1 [AZD6738] + C1CC(C1)(C(=O)[O-])C(=O)[O-].N.N.[Pt+2] [Carboplatin] (first compound max 10 µM, 7x7, partner max 10 µM) | -0.0423 | -0.0138 | -0.0379 | -0.0461 | -0.0517 | -0.0098 | -0.0038 | -0.0344 | -0.0233 |  |
| CC1(C)CCC(CN2CCN(c3ccc(C(=O)NS(=O)(=O)c4ccc(NCC5CCOCC5)c([N+](=O)[O-])c4)c(Oc4cnc5[nH]ccc5c4)c3)CC2)=C(c2ccc(Cl)cc2)C1 [Venetoclax] + CS(=O)(=O)CCNCc1ccc(-c2ccc3ncnc(Nc4ccc(OCc5cccc(F)c5)c(Cl)c4)c3c2)o1 [Lapatinib] (first compound max 1 µM, 7x7, partner max 10 µM) | 0.0062 | -0.0688 | -0.0363 | -0.0409 | -0.0289 | -0.0396 | -0.0222 | -0.0431 | 0.0871 |  |
| C[C@@H](Oc1cc(-c2cnn(C3CCNCC3)c2)cnc1N)c1c(Cl)ccc(F)c1Cl [Crizotinib] + CC1=C(C(=CC=C1)Cl)NC(=O)C2=CN=C(S2)NC3=CC(=NC(=N3)C)N4CCN(CC4)CCO [Dasatinib] (first compound max 10 µM, 7x7, partner max 2 µM) | -0.0135 | -0.0187 | 0.051 | 0.0171 | -0.0337 | 0.0795 | -0.0418 | -0.0254 | -0.0405 |  |
| C[C@@H](Oc1cc(-c2cnn(C3CCNCC3)c2)cnc1N)c1c(Cl)ccc(F)c1Cl [Crizotinib] + Cn1cnc2c(F)c(Nc3ccc(Br)cc3Cl)c(C(=O)NOCCO)cc21 [Selumetinib] (first compound max 10 µM, 7x7, partner max 10 µM) | -0.0437 | 0.0331 | 0.0077 | 0.0065 | -0.082 | -0.0275 | -0.005 | -0.0078 | -0.0213 |  |
| CS(=O)(=O)CCNCc1ccc(-c2ccc3ncnc(Nc4ccc(OCc5cccc(F)c5)c(Cl)c4)c3c2)o1 [Lapatinib] + Cn1cnc2c(F)c(Nc3ccc(Br)cc3Cl)c(C(=O)NOCCO)cc21 [Selumetinib] (first compound max 10 µM, 7x7, partner max 10 µM) | -0.0001 | -0.045 | -0.018 | -0.0193 | -0.0543 | -0.0291 | -0.0587 | -0.0455 | 0.0368 |  |
| C[C@@H]1COCCN1c1cc(C2([S@](C)(=N)=O)CC2)nc(-c2ccnc3[nH]ccc23)n1 [AZD6738] + Nc1ccn([C@@H]2O[C@H](CO)[C@@H](O)C2(F)F)c(=O)n1 [Gemcitabine] (first compound max 10 µM, 7x7, partner max 0.3 µM) | 0.0592 | -0.0011 | -0.0243 | 0.0454 | -0.018 | 0.106 | 0.0544 | 0.0743 | -0.0475 |  |
| C[C@@H](Nc1cc(F)cc(F)c1)c1cc(C(=O)N(C)C)cc2c(=O)cc(N3CCOCC3)oc12 [AZD8186] + C1CN(CCC1(C(=O)N[C@@H](CCO)C2=CC=C(C=C2)Cl)N)C3=NC=NC4=C3C=CN4 [AZD5363] (first compound max 10 µM, 7x7, partner max 10 µM) | -0.0187 | -0.0401 | -0.0411 | -0.0135 | -0.086 | -0.0136 | -0.0162 | -0.0043 | -0.0459 |  |
| O=C(c1cc(Cc2n[nH]c(=O)c3ccccc23)ccc1F)N1CCN(C(=O)C2CC2)CC1 [Olaparib] + CN(CC[C@H](CSC1=CC=CC=C1)NC2=C(C=C(C=C2)S(=O)(=O)NC(=O)C3=CC=C(C=C3)N4CCC(CC4)[C@H](C5=CC=CC=C5C6=CC=C(C=C6)Cl)O)S(=O)(=O)C(F)(F)F)CCO [AZD4320] (first compound max 10 µM, 7x7, partner max 1 µM) | -0.0086 | -0.0864 | -0.0295 | -0.0535 | -0.008 | -0.0482 | -0.0288 | -0.0215 | -0.0143 |  |
| CN(CCO)CC[C@H](CSc1ccccc1)Nc1ccc(S(=O)(=O)NC(=O)c2ccc(N3CCC([C@@H](O)c4ccccc4-c4ccc(Cl)cc4)CC3)cc2)cc1S(=O)(=O)C(F)(F)F [AZD4320] + CS(=O)(=O)CCNCc1ccc(-c2ccc3ncnc(Nc4ccc(OCc5cccc(F)c5)c(Cl)c4)c3c2)o1 [Lapatinib] (first compound max 1 µM, 7x7, partner max 10 µM) | -0.0066 | -0.0394 | 0.0005 | -0.0116 |  | -0.0184 | -0.0333 | -0.0033 | -0.0042 |  |
| O=C(c1cc(Cc2n[nH]c(=O)c3ccccc23)ccc1F)N1CCN(C(=O)C2CC2)CC1 [Olaparib] + COc1nnc2ccc(N3CCC(c4ccc(OCCN5CCN(C)C(=O)[C@H]5C)cc4)CC3)nn12 [AZD5153] (first compound max 10 µM, 7x7, partner max 1 µM) | -0.0384 | -0.0312 | -0.0856 | -0.0506 | -0.0305 | -0.0247 | -0.0247 | -0.0304 | -0.0374 |  |
| Cc1nc(-c2cn3c(n2)-c2ccc(-c4cnn(C(C)(C)C(N)=O)c4)cc2OCC3)n(C(C)C)n1 [Taselisib] + O=C(Nc1ccc2[nH]nc(-c3ccncc3)c2c1)[C@@H]1CCN(CC(=O)N2CCN(c3ccc(-c4ncccn4)cc3)CC2)C1 [SCH772984] (first compound max 10 µM, 7x7, partner max 5 µM) | 0.0095 | 0.0502 | -0.0087 | 0.0518 | -0.0073 | 0.0884 | -0.0028 | 0.0543 | 0.0852 |  |
| C=CCn1c(=O)c2cnc(Nc3ccc(N4CCN(C)CC4)cc3)nc2n1-c1cccc(C(C)(C)O)n1 [AZD1775] + Nc1ccn([C@@H]2O[C@H](CO)[C@@H](O)C2(F)F)c(=O)n1 [Gemcitabine] (first compound max 1 µM, partner max 0.3 µM) | -0.0613 | -0.0225 | 0.0543 | 0.0165 | 0.0004 | 0.0167 | 0.0536 | 0.0247 |  |  |
| Cc1c2c(nn1C)CSCc1cc(n(C)n1)CSc1cc(c3ccccc3c1)OCCCc1c(C(=O)O)n(C)c3c-2c(Cl)ccc13 [AZD5991] + CS(=O)(=O)CCNCc1ccc(-c2ccc3ncnc(Nc4ccc(OCc5cccc(F)c5)c(Cl)c4)c3c2)o1 [Lapatinib] (first compound max 1 µM, 7x7, partner max 10 µM) | 0.0603 | -0.0131 | 0.0013 | -0.043 | -0.125 | 0.0013 | -0.0434 | 0.0165 | 0.0329 |  |
| Cc1c2c(nn1C)CSCc1cc(n(C)n1)CSc1cc(c3ccccc3c1)OCCCc1c(C(=O)O)n(C)c3c-2c(Cl)ccc13 [AZD5991] + Nc1ccn([C@@H]2O[C@H](CO)[C@@H](O)C2(F)F)c(=O)n1 [Gemcitabine] (first compound max 1 µM, 7x7, partner max 0.3 µM) | -0.0041 | -0.02 | -0.0035 | -0.0217 | -0.0278 | -0.0235 | -0.06 | -0.0307 | -0.0637 |  |
| CS(=O)(=O)CCNCc1ccc(-c2ccc3ncnc(Nc4ccc(OCc5cccc(F)c5)c(Cl)c4)c3c2)o1 [Lapatinib] + NC1(c2ccc(-c3nc4ccn5c(=O)[nH]nc5c4cc3-c3ccccc3)cc2)CCC1 [MK-2206] (first compound max 10 µM, 7x7, partner max 10 µM) |  | -0.0139 | -0.027 | -0.0275 | -0.0522 | 0.0174 | 0.0323 | -0.0221 | 0.0372 | -0.0638 |
| C=CCn1c(=O)c2cnc(Nc3ccc(N4CCN(C)CC4)cc3)nc2n1-c1cccc(C(C)(C)O)n1 [AZD1775] + CCc1c2c(nc3ccc(O)cc13)-c1cc3c(c(=O)n1C2)COC(=O)[C@]3(O)CC [SN-38] (first compound max 1 µM, partner max 0.3 µM) | -0.0472 | -0.0464 | -0.0704 | -0.0563 | -0.0771 | -0.0747 | -0.0545 | 0.0067 | -0.0084 |  |
| Cc1c2c(nn1C)CSCc1cc(n(C)n1)CSc1cc(c3ccccc3c1)OCCCc1c(C(=O)O)n(C)c3c-2c(Cl)ccc13 [AZD5991] + CC(=O)O[C@H]1C(=O)[C@@]2(C)[C@H]([C@H](OC(=O)c3ccccc3)[C@]3(O)C[C@H](OC(=O)[C@H](O)[C@@H](NC(=O)c4ccccc4)c4ccccc4)C(C)=C1C3(C)C)[C@]1(OC(C)=O)CO[C@@H]1C[C@@H]2O [Paclitaxel] (first compound max 1 µM, 7x7, partner max 3 µM) | 0.0968 | 0.0731 | 0.0614 | 0.0435 | -0.0443 | 0.037 | 0.0273 | 0.0128 | -0.0044 |  |
| O=C(c1cc(Cc2n[nH]c(=O)c3ccccc23)ccc1F)N1CCN(C(=O)C2CC2)CC1 [Olaparib] + CC1(C)CCC(CN2CCN(c3ccc(C(=O)NS(=O)(=O)c4ccc(NCC5CCOCC5)c([N+](=O)[O-])c4)c(Oc4cnc5[nH]ccc5c4)c3)CC2)=C(c2ccc(Cl)cc2)C1 [Venetoclax] (first compound max 10 µM, 7x7, partner max 1 µM) | -0.0202 | -0.0622 | -0.0044 | -0.0533 | -0.0248 | -0.0433 | -0.0518 | -0.0543 | 0.0116 |  |
| O=C(c1cc(Cc2n[nH]c(=O)c3ccccc23)ccc1F)N1CCN(C(=O)C2CC2)CC1 [Olaparib] + Cc1c2c(nn1C)CSCc1cc(n(C)n1)CSc1cc(c3ccccc3c1)OCCCc1c(C(=O)O)n(C)c3c-2c(Cl)ccc13 [AZD5991] (first compound max 10 µM, 7x7, partner max 1 µM) | -0.0301 | -0.0012 | 0.0369 | -0.0572 | -0.0374 | -0.045 | -0.0211 | -0.0327 | 0.0074 |  |

— the supplement of paper PMC11061612
